The record followed here is patent US9468648B2, “Treatment including prebiotic composition for use with probiotics” (MASTER SUPPLEMENTS, INC., priority 2010, dated 2016).

Holding throughout (assay type): cell-based
For assay [1], the system named is Lactobacillus acidophilus NCFM (LA-1). The assay can be described thus: Growth (turbidity) and lactic acid producing activity in MRS broth, L. acidophilus NCFM. Conditions: for pH: 0.1% in MRS (Polysorbate 80: 1.0 g/l). Here is the method: (§1) At specified time intervals, a 30 ml sample from each flask was aseptically transferred into a HACH […] Turbidimeter sample cell. The turbidity of each sample was read and the results were reported in NTU's. The same 30 ml sample used for the turbidity reading was transferred into a 250 ml glass beaker, and the pH was recorded. The sample was titrated using 0.1 N NaOH to an endpoint of pH 6.8, and the quantity of NaOH used was recorded. The % Lactic Acid was calculated using the following formula: % Lactic Acid=((mls of 0.1N NaOH)×(0.1N)×(90 gm/mole)×(1 L/1000 ml))×100 mls of sample % Lactic Acid=(mls of 0.1N NaOH)×(0.9) (Results reported at 12 hours and 23 hours like: 12/23 in Table I below)

The subject of assay [2] is Lactobacillus rhamnosus-Lr-32 (LR-44). The assay can be described thus: Growth (turbidity) and lactic acid producing activity in MRS broth, L. rhamnosus Lr-32. Conditions: for pH: 0.1% in MRS (Polysorbate 80: 1.0 g/l). On the procedure:
as §1, with “Each flask was tempered to 37° C. and aseptically inoculated with 0.14 gm of the individual probiotic strains (in Examples 5 to 10 below) to be tested. At” for “At”, “IV” for “I”

Assay [3] concerns THERALAC® Lot #32310A probiotic strains. As to the kind of experiment: Growth of the commercial probiotic […] in MRS broth. Particulars: for pH: 0.1% in MRS (Polysorbate 80: 1.0 g/l). On the procedure:
MRS broth was prepared with (for controls) and without (for tests) polysorbate 80 and filled into 1 liter screw cap flasks at 500 ml each and autoclaved at 121° C. for 30 minutes. Various lecithin and/or oleic acid additives, or nothing (negative control), was added to the tests flasks prior to autoclaving. The flasks were then tempered to 37° C. in a water bath and inoculated at 0.1% with […]® Lot #32310A, a commercial probiotic product (Master Supplements, Inc., Victoria, Minn.). Capsules of […]® were opened and the contents mixed aseptically to serve as the inoculum source. At an inoculation rate of 0.1%, approximately 80 million CFU was added per ml of MRS media. […]® contains (formulation strength) the following probiotic strains at the approximate CFU values listed per gram: Turbidity, pH and titrations (made with 0.1 N NaOH and reported as % lactic acid) were made at various times up to 23 hours. The results are presented below in Table VI for the 12 and 23-hour analyses.

Assay [4] has as its system Lactobacillus salivarius-Ls-33 (LS-30). The assay can be described thus: Growth (turbidity) and lactic acid producing activity in MRS broth, L. salivarius Ls-33. Conditions: for pH: 0.1% in MRS (Polysorbate 80: 1.0 g/l). Here is the method:
as §1, with “Each flask was tempered to 37° C. and aseptically inoculated with 0.14 gm of the individual probiotic strains (in Examples 5 to 10 below) to be tested. At” for “At”, “V” for “I”

The subject of assay [5] is Lactobacillus paracasei Lpc-37 (F-19). As to the kind of experiment: Growth (turbidity) and lactic acid producing activity in MRS broth, L. paracasei Lpc-37. On the procedure:
as §1, with “Each flask was tempered to 37° C. and aseptically inoculated with 0.14 gm of the individual probiotic strains (in Examples 5 to 10 below) to be tested. At” for “At”, “III” for “I”

For assay [6], the system named is Bifidobacterium lactis Bl-04 (BL-34). The assay can be described thus: Growth (turbidity) and lactic acid producing activity in MRS broth, B. lactis Bl-04. Particulars: 0.1% in MRS (Polysorbate 80: 1.0 g/l). On the procedure: as §1, with “Each flask was tempered to 37° C. and aseptically inoculated with 0.14 gm of the individual probiotic strains (in Examples 5 to 10 below) to be tested. At” for “At”, “II” for “I”

[7] abbreviates: 0.1% in MRS (Polysorbate 80: 1.0 g/l), 12 hours.

On to `CCCCCCCC/C=C\CCCCCCCC(=O)O` [Oleic Acid, oleic acid], for which the “effectiveness as polysorbate 80 replacement (growth and activity)” value in assay [1] (0.1% inclusion rate) is listed as “somewhat effective as a polysorbate 80 replacement”; in assay [2] (0.1% inclusion rate) it was “not as good a replacement for polysorbate 80 as sunflower lecithin”; in assay [3] (0.1% inclusion rate) it was “acceptable replacement value for polysorbate 80”; in assay [4] (0.1% inclusion rate) it was “not as good a replacement”; in assay [5] (0.1% inclusion rate), “not as effective a replacement for polysorbate 80 as sunflower lecithin”.

Consider polysorbate 80, for which the pH in assay [1] (12 hours) stood at 4.2; in assay [1] (23 hours), 4.1; in assay [2] (12 hours), 4.0; in assay [2] (23 hours), 3.7; in assay [3] (12 hours) it was 3.9; in assay [3] (23 hours), 3.7. Further, the pH in assay [4] (12 hours) is given as 3.8; in assay [4] (23 hours), 3.7; in assay [6] (12 hours) it was 4.8; in assay [6] (23 hours) it was 4.5; in assay [5] (setting [7]), 4.2; in assay [5] (0.1% in MRS (Polysorbate 80: 1.0 g/l), 23 hours), 3.9. Moreover, the “Lactic Acid %” value worked out at 0.57% in assay [6] (12 hours), 0.84% in assay [6] (23 hours) and 0.99% in assay [5] (setting [7]).
